Results as given in patent US10744084B2, “Non-specific delayed-type hypersensitivity response to treat herpes simplex virus infection” (Squarex, LLC, priority 2007, dated 2020).

Columns and labels:
[1] = tested on: herpes simplex virus type 1; assay: Treatment of an individual with frequent and severe cold sores: DNCB solution applied at the site of the HSV lesion on the lower lip; assay type: in vivo, human
From the text: The individual treated was one of the inventors. They are a person and was […] at the time of this treatment. The subject suffered from frequent cold sores on the lower lip. The outbreaks typically lasted 7-10 days and frequently longer. The subject had suffered from frequent cold sores most of their life. During the 6 months prior to this treatment, the outbreaks had been almost continuous. After getting over one outbreak, the next outbreak would begin often within a week.
In the morning they washed it off. A mild erythema in the area of the cold sore developed over 2-3 days and lasted a further 5 days, and the cold sore resolved in about 7 days, which was a typical duration for this individual or a slightly shorter duration than normal. […] Each outbreak would begin and completely resolve in one day. […] We think this may be because the immune system was recognizing not just the DNCB but also the herpes virus antigens with this second application. With the greater inflammation, the cold sore outbreak was worse than any of the outbreaks between the first and second DNCB treatments. […] The outbreak seemed to worsen as the inflammation associated with the DTH response worsened, and only lessened when the DTH response subsided.
When the outbreak subsided, the subject went another 6 months without any outbreaks to the present time.
For several months before and for the entire time described herein after the initial DNCB treatment, the subject took no antiviral medicines.

[2] = Presensitization and dose finding: DNCB solution in acetone applied to spots on the forearm, DTH rash/erythema observed; assay type: in vivo, human; conditions: for erythema on forearm: sensitized subject
From the text: The subject then applied a 0.1%, 0.2%, and 0.3% solutions to separate small spots on the forearm.

[3] = tested on: peripheral blood mononuclear cells; assay: PBMC proliferation assay with stimulation by heat inactivated KOS HSV-1 particles; assay type: cell-based, human; conditions: after treatment compared with before treatment; killed KOS HSV-1 particles
From the text: At visit 1, before applying SADBE, a blood sample is collected from each patient for use in a peripheral blood mononuclear cell (PBMC) proliferation assay to test immune response to herpes virus.
Two months after visit 2 (the first treatment application of SADBE to an HSV lesion) if the patient has not experienced a recurrence outbreak after visit 2, or one month after visit 3 (the treatment application of SADBE to a lesion of a second outbreak), a blood sample is collected from the patient. The first, pretreatment, blood sample and the second, posttreatment, blood sample are used to conduct PBMC proliferation assays to test immune response to herpes virus before and after treatment.
Venous blood is collected in heparinized test tubes for mononuclear cell isolation prior to treatment and after treatment at the times described above. […]
KOS HSV-1 virus (American Type Culture Collection) is grown in culture in VERO cells and collected. […] The titer of the virus stock is determined. […]
Results are calculated by averaging optical density of the wells in each of the groups. A stimulation index is calculated to reflect the proliferation in the wells stimulated by killed HSV as compared to the positive and negative controls. The average optical absorbance of the positive controls is set as a stimulation index (SI) value of 100 and the average absorbance of the negative controls as a SI value of 0.

herpes labialis = assay: Treatment of herpes labialis by squaric acid dibutyl ester (thirty patients, subject diaries); assay type: in vivo, human; conditions: sensitizing dose 2% SADBE in DMSO, then two treatments on lesions in the next two outbreaks
Method: Thirty patients are recruited meeting the following criteria:
In a screening interview, vital signs are recorded, and information is collected on any medications the patient is currently taking, previous and current treatments for cold sores, severity and duration of cold sores.
Upon entering the study, patients are sensitized to squaric acid dibutyl ester (SADBE) by dipping a cotton-tipped swab in a 2% solution of SADBE in DMSO and swabbing a 1 cm^2 area on the forearm. Participants are told then to wait at least 2 weeks for their first treatment.
Throughout the study, the participants are asked to maintain a subject diary, in which they record each day any symptoms they experience, including fever, swelling, pain, redness, itching, burning, the size of any lesions, and any medications taken.
After the 2-week period to allow development of sensitivity to SADBE, upon the beginning of his or her next outbreak (within 72 hours of the first signs of an outbreak), each participant is swabbed at the site of the herpes labialis lesion with a 0.5% solution of SADBE in DMSO.
Upon the next distinct outbreak at least 2 weeks after the previous treatment at visit 2, study diaries are collected. If the diary reflects redness, blistering, or burning greater than 0.5 cm beyond the clinical lesion with the previous SADBE treatment, the dosage of SADBE is decreased to 0.1%. […]

warts = conditions: intralesional injection together with antigens; differences not statistically significant; cited from earlier work
[4] = first treatment, 0.2% DNCB on lower lip
[5] = second treatment, 0.2% DNCB on lower lip
[6] = third treatment, 0.1% DNCB solution

For `O=[N+]([O-])c1ccc(Cl)c([N+](=O)[O-])c1` [DNCB, 1-chloro-2,4-dinitrobenzene], the “severity and duration of subsequent outbreaks compared with before” value ([1]; 4 weeks after first treatment with 0.2% DNCB) was “much less severe and of much shorter duration than before”, the “erythema in the area of the cold sore” value ([1]; first treatment, 0.2% DNCB in acetone on lower lip, left on overnight) was “mild erythema” and the “further duration of erythema” value [1, 4] was 5 days. For the same compound, the “time over which erythema developed” value [1, 4] was 2 to 3 days, the “time to resolution of the treated cold sore” value [1, 4] was “about 7 days” and the time without outbreaks ([1]; following second DNCB treatment at the site of a lesion) was 6 months. The time without outbreaks ([1]; following third treatment (0.1% DNCB), to the present time) was 6 months, the “frequency of subsequent outbreaks” value ([1]; next 4 weeks after first treatment with 0.2% DNCB) was “approximately weekly” and the “duration of the treated outbreak” value [1, 5] was “about 7 days”. For the same compound, the “severity of the treated outbreak” value [1, 5] was “as severe or even slightly more severe than a typical outbreak”, the “inflammation and erythema with the application” value ([1]; second treatment, 0.2% DNCB on lower lip, about two months after the first) was “more severe than they had been with the first application” and the “DTH response at the cold sore” value [1, 6] was “moderate DTH response”. The “duration of the treated outbreak” value [1, 6] was “about 10 days”, the erythema on forearm ([2]; 0.1% DNCB solution) was “almost no erythema” and the erythema on forearm ([2]; 0.2% DNCB solution) was “mild but easily seen erythema”. The “rash on forearm after presensitizing application” value ([2]; 2% DNCB in acetone, first application, two spots on forearm) was “No rash developed”, the “duration of rash on forearm” value ([2]; 2% DNCB, second application two weeks after sensitizing dose) was 3 weeks and the “rash on forearm after second application” value ([2]; 2% DNCB, two weeks after sensitizing dose, different spots on forearm) was “very strong but localized rash”.
For `CCCCOc1c(OCCCC)c(=O)c1=O` [SADBE, squaric acid dibutyl ester], the “stimulation index of PBMC” value [3] was “increased after treatment”, the “duration of outbreaks compared with before treatment” value (herpes labialis) was “last for less time” and the “number of outbreaks compared with before treatment” value (herpes labialis) was “fewer outbreaks than before treatment”.
For “GM-CSF: granulocyte monocyte colony stimulating factor, cytokine used as immune response enhancer”, the “fraction of patients responding to treatment compared with antigen alone” value (warts) is given as “larger fraction”.
For interferon alpha, the “fraction of patients responding to treatment compared with antigen alone” value (warts) is given as “larger fraction”.
